For data set [1], the target named is human PAI-1 (Homo sapiens, UniProt P05121). Description: Measurement of PAI-1 inhibitory activity of compound group 1 (t-PA, Spectrozyme t-PA chromogenic substrate). The conditions noted are these: read-out: PAI-1 activity %.
For data set [2], the system named is hematopoietic stem cells. The data set can be described thus: Hematopoietic recovery after bone-marrow transplantation, compounds a, b, c (Experimental Example 5). The class given is in vivo, mice. Conditions: for frequency of hematopoietic stem cells / self-renewal capacity of hematopoietic stem cells: compound a 100 mg/kg oral 4 days, compounds b and c 10 mg/kg oral 6 consecutive days after bone-marrow transplantation. The method, then:
The procedures of Experimental Examples 4 (1) and 4 (4) were repeated using compounds b and c, instead of compound a, as a test compound.
Compound a was orally administered in an amount of 100 mg/kg for 4 consecutive days after bone-marrow transplantation. Compounds b and c were orally administered in an amount of 10 mg/kg for 6 consecutive days after bone-marrow transplantation.
Bone marrow was collected 1 and 3 weeks after bone-marrow transplantation. The total number of the whole bone-marrow cells (FIG. 9E), the proportion (%) of LSK-CD34 negative cells in the whole bone marrow (FIG. 9A), the total number of LSK-CD34 negative cells in the whole bone marrow (FIG. 9B), the proportion (%) of Lin-SLAM cells in the whole bone marrow (FIG. 9C), and the total number of Lin-SLAM cells in the whole bone marrow (FIG. 9D) were measured. The results are shown in the above-stated figures.

Data set [3] relates to CML cells (32Dp210-GFP cells). The data set can be described thus: Chronic myelogenous leukemia model mice, imatinib and compound a (Experimental Example 11). It counts as in vivo, C3H/HeJ mice. On the procedure: p210(BCR-ABL) gene was inserted into a MIGR1 vector, and GFP cDNA was further incorporated as a reporter gene downstream of the gene (hereinafter, the vector is referred to as “p210-GFP”). p210-GFP was infected with 32D cells (C3H/HeJ mice cell line), and chronic myelogenous leukemia (hereinafter, referred to as “CML”) cells were prepared. 2.5×10^5 of the thus-obtained CML cells (32Dp210(BCR-ABL)-GFP cells, hereinafter, referred to as “32Dp210-GFP cells”) were intravenously administered into the retro-orbital plexus of C3H/HeJ mice. 7 to 10 days after the transplantation, the abundance ratio of GFP cells in the peripheral blood was analyzed, and mice with more than 3% of abundance ratio were used as chronic myelogenous leukemia model mice in the following experiments.
15 chronic myelogenous leukemia model mice prepared by using the procedure described above were divided into the following 3 groups (each group: n=15), and a test drug was administered to the mice in accordance with the protocol shown in FIG. 15A.
Group 1: placebo group (physiological saline was administered via gavage)
Group 2: imatinib group (imatinib [150 mg/kg/day] was administered via gavage)
Group 3: imatinib+compound a group (imatinib [150 mg/kg/day] and compound a [100 mg/kg/day] were administered via gavage)
10 days (day 10) after the day on which CML cells were intravenously inoculated (day 0), administration of test drugs to the groups was started. The placebo group and the imatinib group were administered the respective test drugs once a day from day 10 to day 16 (7 doses in total). The imatinib+compound a group was administered imatinib once a day from day 10 to day 16 (7 doses in total), and also administered compound a once a day from day 10 to day 14 (5 doses in total).
As described above, 32Dp210-GFP includes GFP as a reporter gene, and thus, the CML cells having 32Dp210-GFP inserted (32Dp210-GFP cells) are GFP-positive. Therefore, using FACS (FACS (BD Biosciences: FACSCalibur), the frequency of CML cells (32Dp210-GFP cells) in mononucleic cells of the bone marrow and spleen was measured and compared between the imatinib group and the imatinib+compound a group.

Data set [4] is described as follows: Pharmacokinetics after oral gavage (Experimental Example 6). It counts as in vivo, male Wister rats. Conditions: male, Wistar, rat, 50 mg/kg oral gavage, plasma, reversed-phase HPLC. On the procedure:
Compound a (50 mg/kg) was administered to male Wister rats (180-200 g) via oral gavage. Before administration (0 h), and 1, 2, 6 and 24 hours after the administration, blood was collected, and the concentration of compound a in plasma of each […] was analyzed by reversed-phase HPLC. The time at which the maximum drug concentration in blood is observed (Tmax), the maximum drug concentration (Cmax), and half-life (T½) were determined.

For data set [5], the system named is hematopoietic stem cells. Description: Bone-marrow transplantation into wild-type mice and tPA-KO-mice (Experimental Example 8 (2)). It counts as in vivo. Conditions: 3 weeks after bone-marrow transplantation. The method, then: Compound a was administered to wild-type mice and tPA-KO-mice (6 mice for each) that underwent bone-marrow transplantation, and 3 weeks after, the mice were measured for the number of bone-marrow mononucleic cells (BM MNC), the frequency and absolute number of Lin-SLAM cells, and the frequency and absolute number of LSK-CD34 negative cells. Physiological saline was administered to a control group, and the same measurement was conducted.

Where [6] appears, read: imatinib 150 mg/kg/day + compound a 100 mg/kg/day.
Where [7] appears, read: compound a 100 mg/kg oral, 4 consecutive days, 1 and 3 weeks after bone-marrow transplantation, versus vehicle.

Chain of human PAI-1 (P05121 24-402): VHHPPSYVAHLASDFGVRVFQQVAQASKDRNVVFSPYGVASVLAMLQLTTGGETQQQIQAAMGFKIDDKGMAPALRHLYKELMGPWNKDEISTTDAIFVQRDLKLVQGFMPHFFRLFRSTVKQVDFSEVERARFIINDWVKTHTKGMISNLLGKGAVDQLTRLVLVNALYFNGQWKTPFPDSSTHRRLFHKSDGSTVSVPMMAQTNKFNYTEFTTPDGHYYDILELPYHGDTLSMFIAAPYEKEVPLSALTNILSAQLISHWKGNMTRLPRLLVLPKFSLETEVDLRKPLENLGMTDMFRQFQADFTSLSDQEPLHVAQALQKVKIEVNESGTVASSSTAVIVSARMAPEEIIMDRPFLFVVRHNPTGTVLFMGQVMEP

Consider `O=C(Nc1ccc(Cl)cc1C(=O)O)c1cccc(-c2ccccc2)c1` [Example 4, 2-[(biphenyl-3-ylcarbonyl)amino]-5-chlorobenzoic acid], for which, in data set [1], the activity at 2.5 µM turned out to be 62.1% and the activity at 10 µM came to 0.6%. Further, in data set [2], the “frequency of hematopoietic stem cells” value is “increase” and the “self-renewal capacity of hematopoietic stem cells” value is on record as “enhance”.

One may read the Cmax as the highest concentration seen after dosing. For orientation: Tmax means the time at which the peak concentration occurs. `O=C(COCC(=O)N1CCN(C(c2ccccc2)c2ccccc2)CC1)Nc1ccc(Cl)cc1C(=O)[O-].[Na+]` [Example 30 (compound group 2), 2-(2-(2-(4-benzhydrylpiperazin-1-yl)-2-oxoethoxy)acetamido)-5-chlorobenzoic acid sodium salt]: the “survival rate on day 50” value in data set [3] (imatinib 150 mg/kg/day (day 10-16) + compound a 100 mg/kg/day (day 10-14) via gavage) came out at 60%. For the same compound, in data set [3] (setting [6]), the “frequency of 32Dp210-GFP cells in bone-marrow mononucleic cells” value was “about 1.7%” and the “frequency of CML cells (32Dp210-GFP cells) in the spleen” value was “about 6.6%”. In addition, the median survival period in data set [3] (imatinib 150 mg/kg/day + compound a 100 mg/kg/day via gavage, placebo 14 days) stood at 40 days. In data set [2], the “frequency of hematopoietic stem cells” value was “increase” and the “self-renewal capacity of hematopoietic stem cells” value is on record as “enhance”. Further, in data set [2] (setting [7]), the “plg level, tPA level, cKitL level, total MMP-9 level in the plasma and white blood cell count in the peripheral blood” value is given as “significantly higher”; the “proportion and total number of LSK-CD34 negative cells and Lin-SLAM cells in the whole bone marrow” value is “significantly higher”. In data set [4], the highest level (Cmax) was 35700 ng/mL and the time of peak concentration (Tmax) came to 2 h. Moreover, the half-life in data set [4] (read-out: T½ (converted)) is 2.5 h. In data set [5] (tPA-KO-mice), the bone-marrow mononucleic cells entry is “did not exhibit an increase”; the “frequency or absolute number of Lin-SLAM cells and of LSK-CD34 negative cells” value is recorded as “an increase was also not observed”. Also, the bone-marrow mononucleic cells entry in data set [5] (wild-type mice) was “increase”.

For the origin of these results see US10092537B2, “Use for PAI-1 inhibitor” (RENASCIENCE CO., LTD., priority 2013, dated 2018).
